The values below come from ChEMBL document CHEMBL1201862, “PubChem BioAssay data set” (2004).

Common to all, as to assay: growth of human tumour cells (NCI), 48 h
Test [1] deals with LOX IMVI.
In test [2] the test system is EKVX.
Test [3] concerns MCF7.
The test system of test [4] is MDA-N.
Test [5] relates to COLO 205.
The test system of test [6] is BT-549.
Test [7] has as its system SF-295.
Test [8] deals with NCI-H23.
Test [9] relates to SK-MEL-28.
In test [10] the test system is KM12.
The test system of test [11] is Malme-3M.
The subject of test [12] is MDA-MB-435.
In test [13] the test system is A498.
In test [14] the test system is DU-145.
Test [15] concerns RXF 393.

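Method: 48-hour compound exposure of cells in 96-well plates, five concentrations, linear interpolation of endpoints. GI50 is the concentration that inhibits growth by half.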 Calls of active or inactive are those of the source. Rule as the data show it: active = GI50 up to about 1.1 µM and inactive = higher.

Take `S=C(N/N=C/c1ccccn1)N1CCCCCC1`: the GI50 was < 0.01 µM (active) in test [1]; < 0.0294 µM (active) in [2]; < 0.01 µM (active) in test [3]; 0.0773 µM (active) in [4]; < 0.01 µM (active) in test [5]; < 0.01 µM (active) in test [6]. Further, the GI50 was 0.124 µM (active) in test [7]; < 0.01 µM (active) in test [8]; 0.215 µM (active) in [9]; < 0.01 µM (active) in test [10]; < 0.0392 µM (active) in test [11]; 0.148 µM (active) in test [12]. Moreover, the GI50 was < 0.0391 µM (active) in [13] and 0.115 µM (active) in test [14].
On to `O=c1cnnc2sc(=S)[nH]n12`, for which the GI50 in [1] was 4.13 µM (inactive); in test [2], > 100 µM (inactive); in test [3], 14.7 µM (inactive); in test [4], 36.2 µM (inactive); in test [5] it was > 100 µM (inactive); in test [6], 14.1 µM (inactive). Also, the GI50 in test [7] was 2.97 µM (inactive); in test [9], 65.5 µM (inactive); in [10], > 100 µM (inactive); in test [11] it was 31 µM (inactive); in [12], 24.7 µM (inactive); in [13] it was > 100 µM (inactive). Besides, the GI50 in [14] was > 100 µM (inactive).
With `Cc1cc(C)c(S(=O)(=O)N(CCCCCCN)OCCCN)c(C)c1`, the GI50 is 12.2 µM (inactive) in test [1]; 15.3 µM (inactive) in [2]; 19.8 µM (inactive) in test [3]; 17.5 µM (inactive) in test [4]; 17.3 µM (inactive) in test [5]; 17.8 µM (inactive) in test [6]. The GI50 in [7] was 18.5 µM (inactive); in test [8] it was 17.1 µM (inactive); in test [9] it was 18.1 µM (inactive); in [10] it was 15.1 µM (inactive); in test [11], 10.3 µM (inactive); in test [12], 62.1 µM (inactive). The GI50 in test [14] is 16.1 µM (inactive).
Consider `COC(=O)c1cc2c3c(cc(N(C)C)c2[nH]1)N(C(=O)c1cc2cc(OC)c(OC)c(OC)c2[nH]1)CC3CCl` (stereo not given), for which the GI50 is 0.0146 µM (active) in test [2]; < 0.0025 µM (active) in test [3]; 0.00427 µM (active) in test [4]; < 0.0025 µM (active) in test [15]; 0.00557 µM (active) in test [5]; 0.018 µM (active) in test [6]. The GI50 is 0.00379 µM (active) in test [7]; 0.00381 µM (active) in test [8]; 0.00641 µM (active) in [9]; 0.00267 µM (active) in [10]; 0.00463 µM (active) in test [11]; 0.00298 µM (active) in test [12]. The results for the GI50 in test [13] and in [14] were 0.00443 µM (active) and < 0.0025 µM (active), respectively.
As to `COc1ccc(/C=C2/SC(c3ccccc3)N(NC(=O)CCCCCCCCC(=O)NN3C(=O)/C(=C\c4ccc(OC)c(OC)c4)SC3c3ccccc3)C2=O)cc1OC` (stereo not given), the GI50 in test [2] was 17.1 µM (inactive); in [3], 34 µM (inactive); in test [4], 35.2 µM (inactive); in [15], 58.5 µM (inactive); in test [5], > 100 µM (inactive); in [6] it was > 100 µM (inactive). Also, the GI50 in test [7] was 24.2 µM (inactive); in test [8], 38.4 µM (inactive); in test [9], 48 µM (inactive); in test [10], 45 µM (inactive); in test [12], 38.5 µM (inactive); in [13] it was 57.4 µM (inactive). Also, in [14], the GI50 is > 100 µM (inactive).
On to `COC(=O)C1OC2(CCCC3CC32)O[C@H]1C(=O)OC` (stereo not given in full), for which the GI50 in test [1], in test [2], in [3], in test [4], in test [15] and in [5] was > 100 µM (inactive) each time. For the same compound, the GI50 in test [6], in test [7], in test [8], in [9], in test [10] and in test [11] was > 100 µM (inactive) in each case. For the same compound, the GI50 in test [12] and in [14] was > 100 µM (inactive) in each case.
On to `CCN(CC)CCNC(=O)c1cc2cc(NC(=O)c3cc4cc(NC(=O)c5cc6cc(N)ccc6[nH]5)ccc4[nH]3)ccc2[nH]1`, for which the GI50 in test [1], in test [2], in [4], in [15], in test [5] and in [6] was > 100 µM (inactive) in each case. The GI50 in test [7], in test [8], in [9], in [10], in [11] and in test [12] was > 100 µM (inactive) throughout. Also, the GI50 in [13] and in [14] was > 100 µM (inactive) throughout.
Turning to `O=C1OC(=O)c2c1cc1cc3c(cc1c2-c1ccc2c(c1)OCO2)OCO3`, the GI50 in [3], in test [4], in test [15], in [5], in test [6] and in test [7] was > 100 µM (inactive) each time. For the same compound, the GI50 in test [8], in test [9], in test [10], in test [11], in test [12] and in test [13] was > 100 µM (inactive) throughout. The GI50 in test [14] is > 100 µM (inactive).
Take `O=C(NNC(=O)c1ccccc1O)c1ccc(O)cc1`: the GI50 in [1] is 31.6 µM (inactive); in [2], 38.3 µM (inactive); in test [3] it was 58.9 µM (inactive); in [4], > 100 µM (inactive); in test [15], > 100 µM (inactive); in test [5] it was 47.8 µM (inactive). Moreover, the GI50 is 40.6 µM (inactive) in [6]; 33 µM (inactive) in test [7]; > 100 µM (inactive) in [9]; 45.3 µM (inactive) in test [10]; 14.5 µM (inactive) in test [11]; 69.7 µM (inactive) in test [12]. Besides, the results for the GI50 in [13] and in test [14] were > 100 µM (inactive) and 76.7 µM (inactive), respectively.
For the compound `O=C1c2ccccc2C(=O)c2c1sc1nc3ccccc3n21`, the GI50 was 0.893 µM (active) in [1]; 2.4 µM (inactive) in test [2]; 1.86 µM (inactive) in test [3]; 1.79 µM (inactive) in test [4]; 1.79 µM (inactive) in test [15]; 1.8 µM (inactive) in test [5]. Moreover, the GI50 in test [6] was 1.98 µM (inactive); in test [7] it was 1.66 µM (inactive); in [8], 1.29 µM (inactive); in [10], 1.83 µM (inactive); in test [11], 0.439 µM (active); in [12] it was 2.11 µM (inactive). Further, the values for the GI50 in test [13] and in test [14] were 10.7 µM (inactive) and 1.75 µM (inactive), respectively.
Consider `CC1CCC2C(C(=O)O[C@H]3C4CCO[C@@H](OC5OC(CO)C(O)C(O)C5O)C4[C@@]4(CO)O[C@@H]34)=CO[C@@H](OC3OC(CO)C(O)C(O)C3O)C12` (stereo not given in full), for which the GI50 in [1], in test [2], in [3], in [4], in test [15] and in [6] was > 10 µM (inactive) throughout. The GI50 in test [7], in test [8], in [9], in test [10], in test [11] and in test [12] was > 10 µM (inactive) throughout. Besides, the GI50 in test [13] and in test [14] was > 10 µM (inactive) in each case.
Turning to `Cc1c(N2C(=O)/C(=C/c3ccc(Cl)cc3)N=C2c2ccccc2)c(=O)n(-c2ccccc2)n1C`, the GI50 in [1] was 16.7 µM (inactive); in test [2] it was 19.7 µM (inactive); in [3] it was 29 µM (inactive); in test [4] it was 24.8 µM (inactive); in test [15] it was 22.3 µM (inactive); in test [5], 16 µM (inactive). Besides, the GI50 is 47.4 µM (inactive) in test [6]; 35.7 µM (inactive) in test [7]; 26.2 µM (inactive) in test [8]; 26.5 µM (inactive) in test [10]; 31.5 µM (inactive) in test [11]; 19.5 µM (inactive) in test [12]. Further, the GI50 in test [14] was 38.2 µM (inactive).
For `CO[C@H]1c2cccc3cccc(c23)[C@@H]1n1[nH]c(=O)n(C(C)(C)C)c1=O`, the GI50 in [1], in test [2], in [3], in test [4], in test [15] and in [5] was > 100 µM (inactive) throughout. For the same compound, the GI50 in [6], in [8], in [9], in test [10], in [11] and in test [12] was > 100 µM (inactive) each time. For the same compound, the GI50 in test [13] and in test [14] was > 100 µM (inactive) each time.
In the case of `CCCCCCCCCCCCOCCOCCOCCOCCOCCOCC(=O)NC(Cc1ccccc1)C(=O)Oc1ccc([N+](=O)[O-])cc1` (stereo not given), the GI50 in test [1] was 29.8 µM (inactive); in test [2] it was 61.2 µM (inactive); in test [3], 38.1 µM (inactive); in [4], 27.7 µM (inactive); in test [15] it was 31.8 µM (inactive); in test [5] it was 15.8 µM (inactive). Also, the GI50 in test [6] is 25.5 µM (inactive); in [7], 39.1 µM (inactive); in test [8], 32.3 µM (inactive); in test [10], 40.1 µM (inactive); in test [11], 29.6 µM (inactive); in [12], 30.6 µM (inactive). Further, the GI50 in test [13] was 39.6 µM (inactive).
